The values that follow come from patent US10858362B2, “Imidazopyrazinones as PDE1 inhibitors” (H. Lundbeck A/S, priority 2015, dated 2020).

Holding throughout (format): biochemical
One assay addresses PDE1A (Homo sapiens (Human), UniProt P54750). Description: PDE1 inhibition assay, PDE1A. As to conditions: for IC50: 15 nM tritium labelled cAMP. On the procedure:
Reactions were initiated by addition of the cyclic nucleotide substrate, and reactions were allowed to proceed for 1 h at room temperature before being terminated through mixing with 20 μL (0.2 mg) yttrium silicate SPA beads (PerkinElmer).

The next assay concerns the target PDE1B (Homo sapiens (Human), UniProt Q01064). Description: PDE1 inhibition assay, PDE1B. To be noted: for IC50: 15 nM tritium labelled cAMP. On the procedure: (§1) Reactions were initiated by addition of the cyclic nucleotide substrate, and reactions were allowed to proceed for 1 h at room temperature before being terminated through mixing with 20 μL (0.2 mg) yttrium silicate SPA beads (PerkinElmer). The beads were allowed to settle for 1 h in the dark before the plates were counted in a Wallac 1450 Microbeta counter.

A further assay addresses PDE1C (Homo sapiens (Human), UniProt Q14123). Briefly: PDE1 inhibition assay, PDE1C. To be noted: for IC50: 15 nM tritium labelled cAMP. The procedure: as §1
Another assay concerns the target PDE9 (Homo sapiens (Human), UniProt O76083). Briefly: PDE9 inhibition assay. The procedure:
A PDE9 assay may for example, be performed as follows: The assay is performed in 60 μL samples containing a fixed amount of the relevant PDE enzyme (sufficient to convert 20-25% of the cyclic nucleotide substrate), a buffer (50 mM HEPES7.6; 10 mM MgCl2; 0.02% Tween20), 0.1 mg/ml BSA, 225 pCi of ^3H-labelled cyclic nucleotide substrate, tritium labeled cAMP to a final concentration of 5 nM and varying amounts of inhibitors. Reactions are initiated by addition of the cyclic nucleotide substrate, and reactions are allowed to proceed for one hr at room temperature before being terminated through mixing with 15 μL 8 mg/mL yttrium silicate SPA beads (Amersham). The beads are allowed to settle for one hr in the dark before the plates are counted in a Wallac 1450 Microbeta counter.
In the context of the present invention the assay was performed in 60 μL assay buffer (50 mM HEPES pH 7.6; 10 mM MgCl2; 0.02% Tween20) containing enough PDE9 to convert 20-25% of 10 nM ^3H-cAMP and varying amounts of inhibitors. Following a 1 hr incubation the reactions were terminated by addition of 15 μL 8 mg/mL yttrium silicate SPA beads (Amersham). The beads were allowed to settle for one hr in the dark before the plates were counted in a Wallac 1450 Microbeta counter.

Structures are written as SMILES.

One may read the IC50 as the concentration at which inhibition is half-maximal. By inhibition is commonly meant the relative decrease from the control value, in per cent.

Sequence of PDE1B (Q01064 whole entry): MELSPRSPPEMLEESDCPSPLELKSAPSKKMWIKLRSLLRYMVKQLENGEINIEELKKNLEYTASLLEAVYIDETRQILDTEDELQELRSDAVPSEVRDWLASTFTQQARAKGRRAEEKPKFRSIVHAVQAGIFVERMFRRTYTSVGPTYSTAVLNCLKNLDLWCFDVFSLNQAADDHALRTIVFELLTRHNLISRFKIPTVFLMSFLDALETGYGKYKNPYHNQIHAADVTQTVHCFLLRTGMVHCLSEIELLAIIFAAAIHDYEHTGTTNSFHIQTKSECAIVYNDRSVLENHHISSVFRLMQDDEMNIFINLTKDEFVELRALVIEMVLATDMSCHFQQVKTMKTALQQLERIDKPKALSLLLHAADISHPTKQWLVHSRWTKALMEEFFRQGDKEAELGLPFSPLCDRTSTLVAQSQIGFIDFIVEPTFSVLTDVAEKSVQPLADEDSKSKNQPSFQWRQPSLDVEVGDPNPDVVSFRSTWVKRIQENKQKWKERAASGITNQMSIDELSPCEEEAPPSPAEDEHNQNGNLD
Sequence of PDE9 (O76083 whole entry): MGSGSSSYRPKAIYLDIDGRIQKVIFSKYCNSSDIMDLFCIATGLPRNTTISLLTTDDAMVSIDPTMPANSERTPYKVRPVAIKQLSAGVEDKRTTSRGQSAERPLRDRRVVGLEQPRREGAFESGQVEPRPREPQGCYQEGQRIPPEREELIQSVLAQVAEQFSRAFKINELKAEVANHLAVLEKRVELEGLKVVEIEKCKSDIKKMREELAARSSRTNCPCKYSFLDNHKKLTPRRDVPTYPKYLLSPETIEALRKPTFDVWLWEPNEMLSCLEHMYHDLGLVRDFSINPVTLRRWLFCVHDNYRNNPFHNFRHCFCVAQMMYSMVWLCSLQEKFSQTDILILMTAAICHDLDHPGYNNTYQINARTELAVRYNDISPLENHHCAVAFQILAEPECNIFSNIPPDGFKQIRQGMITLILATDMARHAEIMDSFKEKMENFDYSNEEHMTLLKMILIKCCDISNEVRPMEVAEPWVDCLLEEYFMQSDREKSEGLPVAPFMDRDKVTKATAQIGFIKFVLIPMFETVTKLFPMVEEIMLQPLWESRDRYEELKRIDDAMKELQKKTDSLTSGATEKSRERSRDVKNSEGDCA
Sequence of PDE1A (P54750 whole entry): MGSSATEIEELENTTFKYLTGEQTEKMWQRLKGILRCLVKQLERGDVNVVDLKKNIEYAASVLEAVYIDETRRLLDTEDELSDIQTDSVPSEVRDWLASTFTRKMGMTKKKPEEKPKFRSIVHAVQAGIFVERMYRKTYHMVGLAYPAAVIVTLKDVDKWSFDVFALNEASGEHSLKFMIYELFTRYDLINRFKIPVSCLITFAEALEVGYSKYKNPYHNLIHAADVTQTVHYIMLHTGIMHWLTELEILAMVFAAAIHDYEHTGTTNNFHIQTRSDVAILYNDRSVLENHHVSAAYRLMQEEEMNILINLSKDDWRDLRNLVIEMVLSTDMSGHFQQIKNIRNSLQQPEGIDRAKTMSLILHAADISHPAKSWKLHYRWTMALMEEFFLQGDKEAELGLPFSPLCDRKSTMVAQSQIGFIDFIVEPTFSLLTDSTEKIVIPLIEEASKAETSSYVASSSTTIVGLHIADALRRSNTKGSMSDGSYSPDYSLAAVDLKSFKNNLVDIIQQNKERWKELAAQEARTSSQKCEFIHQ
Sequence of PDE1C (Q14123 whole entry): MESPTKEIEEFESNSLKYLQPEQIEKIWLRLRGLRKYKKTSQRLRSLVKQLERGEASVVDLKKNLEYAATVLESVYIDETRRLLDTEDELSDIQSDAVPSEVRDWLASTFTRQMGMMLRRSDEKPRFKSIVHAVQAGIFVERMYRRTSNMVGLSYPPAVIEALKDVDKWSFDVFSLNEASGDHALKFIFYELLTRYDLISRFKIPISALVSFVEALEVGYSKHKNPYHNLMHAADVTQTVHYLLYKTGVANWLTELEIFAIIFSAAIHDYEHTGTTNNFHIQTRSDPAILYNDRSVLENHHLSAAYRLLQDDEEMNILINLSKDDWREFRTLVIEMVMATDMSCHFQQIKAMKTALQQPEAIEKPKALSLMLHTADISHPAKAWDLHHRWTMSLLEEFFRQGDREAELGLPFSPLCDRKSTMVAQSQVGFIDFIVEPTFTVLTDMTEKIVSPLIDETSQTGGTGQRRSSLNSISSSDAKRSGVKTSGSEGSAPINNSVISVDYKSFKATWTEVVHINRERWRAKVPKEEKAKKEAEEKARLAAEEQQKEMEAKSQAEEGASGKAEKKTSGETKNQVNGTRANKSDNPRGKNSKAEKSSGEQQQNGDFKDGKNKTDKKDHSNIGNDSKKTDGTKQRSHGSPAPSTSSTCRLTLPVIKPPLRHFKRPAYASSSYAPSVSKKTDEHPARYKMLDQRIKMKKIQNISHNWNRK

Take `Cc1cn2c(C3CCOCC3)ncc2c(=O)n1Cc1cccc(F)c1` [Example 5, 7-(3-Fluorobenzyl)-6-methyl-3-(tetrahydro-2H-pyran-4-yl)imidazo[1,5-a]pyrazin-8(7H)-one]: the concentration for half-maximal inhibition (IC50) was 0.108 µM against PDE1A, 0.12 µM against PDE1B and 0.014 µM against PDE1C. Moreover, the inhibition at 10 µM on PDE9 worked out at 18%.
Take `Cc1cn2c([C@H]3CCO[C@H]3C)ncc2c(=O)n1Cc1cccc(F)c1` (single isomer, unassigned; isomer 4) [36, isomer 4]: the values for the IC50 against PDE1A and at PDE1B were 0.051 µM and 0.52 µM, respectively. In addition, the “PDE1C, % inhibition (at 1 μM)” value at PDE1C (at 1 μM) came to 40%. Besides, the “% inhibition of PDE9 at 10 microM” value on PDE9 is listed as 11%.
Consider `COc1ccc(Cn2c(C)cn3c(C4CCNC(=O)CC4)ncc3c2=O)cc1` (centres unmarked) [Example 88, 7-(4-methoxybenzyl)-6-methyl-3-(7-oxoazepan-4-yl)imidazo[1,5-a]pyrazin-8(7H)-one], for which the half-maximal inhibitory concentration (IC50) came to 0.484 µM at PDE1A, 0.308 µM at PDE1B and 0.548 µM on PDE1C. Further, the inhibition at 10 µM against PDE9 is -32%.
With `Cc1cn2c(C3CCOCC3)ncc2c(=O)n1C[C@H]1CC[C@H](C)CC1` [66, trans], the 50% inhibitory concentration (IC50) at PDE1A stood at 0.035 µM; against PDE1B, 0.011 µM; against PDE1C, 0.046 µM. Besides, the “% inhibition of PDE9 at 10 microM” value at PDE9 is −2%.
For `Cc1cn2c(C3CCOCC3)ncc2c(=O)n1C[C@H]1CC[C@@H](C)CC1` [66, cis] the same measures were 0.007 µM, 0.006 µM, 0.004 µM and −3%.
Consider `O=c1c2cnc(C3CC3)n2ccn1Cc1cccc(F)c1` [Example 6, 3-Cyclopropyl-7-(3-fluorobenzyl)imidazo[1,5-a]pyrazin-8(7H)-one], for which the inhibition at 2 µM on PDE1A (read-out: PDE1A, % inhibition (at 2 μM)) is 68%; at PDE1B (read-out: PDE1B, % inhibition (at 2 μM)), 81%. Also, it took 0.29 µM to reach half-maximal inhibition against PDE1C (IC50). In addition, the inhibition at 10 µM on PDE9 came out at 25%.
As to `Cc1cn2c(C3CCOCC3)ncc2c(=O)n1Cc1ccc(OC(F)F)cc1` [Example 40, 7-(4-(difluoromethoxy)benzyl)-6-methyl-3-(tetrahydro-2H-pyran-4-yl)imidazo[1,5-a]pyrazin-8(7H)-one], the values for the IC50 on PDE1A, against PDE1B and against PDE1C were 0.073 µM, 0.027 µM and 0.052 µM, respectively. Besides, the inhibition at 10 µM at PDE9 was -25%.
For `Cc1ccccc1Cn1c(C)cn2c(C3CCOCC3)ncc2c1=O` [Example 21, 6-Methyl-7-(2-methylbenzyl)-3-(tetrahydro-2H-pyran-4-yl)imidazo[1,5-a]pyrazin-8(7H)-one] the same measures were 0.242 µM, 0.195 µM, 0.03 µM and -14%.
For `COc1ccc(Cn2c(C)cn3c([C@@]4(C)C[C@@H]5CC[C@H]4O5)ncc3c2=O)cc1` [Example 70, 7-(4-methoxybenzyl)-6-methyl-3-((1R,2R,4S)-2-methyl-7-oxabicyclo[2.2.1]heptan-2-yl)imidazo[1,5-a]pyrazin-8(7H)-one] the same measures were 0.029 µM, 0.017 µM, 0.028 µM and -11%.
For `O=c1c2cnc(C3CCOCC3)n2ccn1CC1CCCCCC1` [Example 12, 7-(Cycloheptylmethyl)-3-(tetrahydro-2H-pyran-4-yl)imidazo[1,5-a]pyrazin-8(7H)-one], the IC50 turned out to be 0.03 µM against PDE1A, 0.021 µM against PDE1B and 0.016 µM at PDE1C. Moreover, the inhibition at 10 µM on PDE9 worked out at 12%.
Consider `O=c1c2cnc(C3CCOCC3)n2ccn1CC1CCCCC1` [Example 11, 7-(Cyclohexylmethyl)-3-(tetrahydro-2H-pyran-4-yl)imidazo[1,5-a]pyrazin-8(7H)-one], for which the IC50 stood at 0.113 µM on PDE1A, 0.072 µM against PDE1B and 0.043 µM against PDE1C. Moreover, on PDE9, the inhibition at 10 µM is 18%.
The like results for `Cc1cn2c(C3(C#N)CCOCC3)ncc2c(=O)n1Cc1cccc(F)c1` [Example 27, 4-(7-(3-fluorobenzyl)-6-methyl-8-oxo-7,8-dihydroimidazo[1,5-a]pyrazin-3-yl)tetrahydro-2H-pyran-4-carbonitrile] were, in that order, 0.603 µM, 0.699 µM, 0.103 µM and 5%.
The like results for `Cc1cn2c(C3CCOCC3)ncc2c(=O)n1Cc1ccsc1` [Example 79, 6-methyl-3-(tetrahydro-2H-pyran-4-yl)-7-(thiophen-3-ylmethyl)imidazo[1,5-a]pyrazin-8(7H)-one] were, in that order, 0.228 µM, 0.112 µM, 0.015 µM and 14%.
`Cc1cn2c(C3CCOCC3)ncc2c(=O)n1C(C)C` [Example 61, 7-isopropyl-6-methyl-3-(tetrahydro-2H-pyran-4-yl)imidazo[1,5-a]pyrazin-8(7H)-one]: the inhibition at 10 µM was determined as 4% on PDE1A (read-out: PDE1A, % inhibition (at 10 μM)); 50% at PDE1B (read-out: PDE1B, % inhibition (at 10 μM)); 47% on PDE1C (read-out: PDE1C, % inhibition (at 10 μM)); 4% against PDE9.
For the molecule `Cc1cn2c(C3CCOCC3)ncc2c(=O)n1CC1CCCCC1` [Example 4, 7-(Cyclohexylmethyl)-6-methyl-3-(tetrahydro-2H-pyran-4-yl)imidazo[1,5-a]pyrazin-8(7H)-one], the IC50 against PDE1A amounted to 0.011 µM; at PDE1B, 0.025 µM; on PDE1C, 0.007 µM. The inhibition at 10 µM on PDE9 is -5%.
For `CCCc1ncc2c(=O)n(Cc3ccc(OC)cc3)c(C)cn12` [Example 56, 7-(4-methoxybenzyl)-6-methyl-3-propylimidazo[1,5-a]pyrazin-8(7H)-one] the same measures were 0.065 µM, 0.021 µM, 0.043 µM and 7%.
In the case of `CCn1c(C)cn2c(C3CCOCC3)ncc2c1=O` [Example 59, 7-ethyl-6-methyl-3-(tetrahydro-2H-pyran-4-yl)imidazo[1,5-a]pyrazin-8(7H)-one], the IC50 against PDE1A came out at 2.33 µM; against PDE1B, 0.496 µM; on PDE1C, 1.74 µM. The inhibition at 10 µM at PDE9 is -13%.
The like results for `COc1ccc(Cn2c(C)cn3c(C4(C)CNC(=O)C4)ncc3c2=O)cc1` (centres unmarked) [Example 75, 7-(4-methoxybenzyl)-6-methyl-3-(3-methyl-5-oxopyrrolidin-3-yl)imidazo[1,5-a]pyrazin-8(7H)-one] were, in that order, 0.236 µM, 0.297 µM, 0.36 µM and 8%.
The like results for `Cc1cn2c(C3CCOCC3)ncc2c(=O)n1Cc1ccccc1C#N` [Example 64, 2-((6-methyl-8-oxo-3-(tetrahydro-2H-pyran-4-yl)imidazo[1,5-a]pyrazin-7(8H)-yl)methyl)benzonitrile] were, in that order, 0.624 µM, 0.528 µM, 0.103 µM and 11%.
For `Cc1cn2c(C3CCOCC3)ncc2c(=O)n1CC1CCCC1` [Example 63, 7-(cyclopentylmethyl)-6-methyl-3-(tetrahydro-2H-pyran-4-yl)imidazo[1,5-a]pyrazin-8(7H)-one] the same measures were 0.183 µM, 0.082 µM, 0.017 µM and -3%.
Consider `O=c1c2cnc(C3CC3)n2ccn1CC1CCCCC1` [Example 8, 7-(Cyclohexylmethyl)-3-cyclopropylimidazo[1,5-a]pyrazin-8(7H)-one], for which the IC50 at PDE1A amounted to 0.252 µM; on PDE1B it was 0.067 µM; on PDE1C it was 0.1 µM. Besides, at PDE9, the inhibition at 10 µM worked out at 9%.
As to `Cc1nc(Cn2c(C)cn3c(C4CCOCC4)ncc3c2=O)cs1` [Example 78, 6-methyl-7-((2-methylthiazol-4-yl)methyl)-3-(tetrahydro-2H-pyran-4-yl)imidazo[1,5-a]pyrazin-8(7H)-one], the values for the IC50 against PDE1A, against PDE1B and against PDE1C were 1.69 µM, 0.641 µM and 0.251 µM, respectively. Further, the inhibition at 10 µM against PDE9 came to 6%.
As for `COc1ccc(Cn2c(C)cn3c(C4CCOCC4)ncc3c2=O)cc1` [Example 23, 7-(4-Methoxybenzyl)-6-methyl-3-(tetrahydro-2H-pyran-4-yl)imidazo[1,5-a]pyrazin-8(7H)-one], the figures for the IC50 at PDE1A, against PDE1B and against PDE1C were 0.014 µM, 0.012 µM and 0.019 µM, respectively. Besides, the inhibition at 10 µM against PDE9 came to 16%.
